Reference: paper PMC8151276, “An Integrated Approach toward NanoBRET Tracers for Analysis of GPCR Ligand Engagement” (Molecules, 2021)

Key:
Assay type in all cases: binding
[1] = biological target: T1, FPR2 (Homo sapiens, UniProt P25090); assay: NanoBRET screen HiBiT-FPR2 in HEK293; details: FPR2
T1 construct: purchased Promega (in-house HiBiT-GPCR construct library, NanoBRET)
T1 sequence (P25090 1-351): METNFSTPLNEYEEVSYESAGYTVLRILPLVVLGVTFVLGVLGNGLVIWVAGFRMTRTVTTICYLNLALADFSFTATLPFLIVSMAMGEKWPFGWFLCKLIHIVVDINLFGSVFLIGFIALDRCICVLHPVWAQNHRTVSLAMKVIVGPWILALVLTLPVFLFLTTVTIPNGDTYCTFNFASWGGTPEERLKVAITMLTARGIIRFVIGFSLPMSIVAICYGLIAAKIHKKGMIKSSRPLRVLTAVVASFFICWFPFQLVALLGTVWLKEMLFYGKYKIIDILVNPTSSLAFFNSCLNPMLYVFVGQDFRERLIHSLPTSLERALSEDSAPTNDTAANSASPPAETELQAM
Description: (§1) Each tracer candidate was screened across the entire library of HiBiT-GPCR constructs using NanoBRET as the detection modality. As depicted in Figure 4A, the specificity of interactions was evaluated through decrease in BRET due to competitive displacement of a bound tracer by excess parental compound. Each tracer was analyzed for binding to each HiBiT-GPCR fusion in the absence and in the presence of competing parental compound. Briefly, HEK293 cells were transfected with HiBiT-GPCR constructs diluted into promoterless DNA to reduce expression and maximize translocation to the cell surface. Each tracer candidate was then screened at concentrations of 1 μM and 0.1 μM across cells expressing these fusions. Cells were treated for 1.5 h with tracer either alone or in the presence of 20 μM competing parental compound (i.e., control). BRET was measured upon addition of purified LgBiT and subsequent complementation with HiBiT genetically fused to a GPCR. The specificity of interactions was assessed through a decrease in BRET signal due to competitive displacement of the bound tracer. To further gauge the robustness of these interactions, the fold response over the control (i.e., BRETtracer/BRETcontrol) was calculated. We chose a 1.5-fold response, which translates to ≥7-fold signal over noise as the minimal threshold required to score an interaction as positive. […]. Below we highlight the screening results obtained for our exemplary fluorescent tracers based on Clozapine, Amitriptyline and AZD1283.
(§2) HiBiT-GPCR DNA constructs were diluted in 10 mM Tris pH 8 to a final concentration of 0.01 μg/μL, arrayed in 96-well plates and stored at −20 °C. For transfection, HEK293 cells were suspended in Opti-MEM (without phenol red) supplemented with 2% fetal bovine serum (Seradigm) and 100 units/mL penicillin–streptomycin (Gibco) at a final concentration of 220,000 cells/mL and dispensed into white 96-well plates at 90 μL/well. Subsequent transfections and screens were carried using an Agilent Bravo Automated Liquid Handling Platform. First, the 96-well HiBiT DNA arrays were diluted 25-fold in Opti-MEM (without serum or phenol red) to a final concentration of 0.0004 μg/μL and 20 μL of the diluted DNAs were transferred into new 96-well plates. Next, promoterless carrier DNA (1 μg/μL) was diluted 25-fold (0.04 μg/μL) and then dispensed into the diluted arrays at 20 μL/well. Following brief mixing, Viafect transfection reagent (Promega) diluted 16-fold into Opti-MEM was dispensed into the plates at 40 μL/well. After mixing by pipetting, plates were incubated for 10 min on the pipetting station deck. The DNA-transfection reagent complexes were then added to plates containing cells. To facilitate the screen, 10 μL of DNA-transfection reagent complexes were added in duplicates to the top 4 and bottom 4 rows, resulting in two identical 48-well arrays per plate. Plates with transfected cells were incubated for 18–20 h at 37 °C/5% CO2. A screen of each tracer across the entire library using two different concentrations requires duplicate plates of transfected cells. Depending on the number of tracers being screened, transfections can be scaled up using the same ratios. The next day, for each tracer, four 20× screening solutions in tracer dilution buffer (Promega) were prepared: two duplicates at final concentration of 20 μM and two duplicates at a final concentration of 2 μM. A competing unmodified compound was added to one of each duplicate at a final concentration of 400 μM. The four resulting solutions were diluted 4-fold in Opti-MEM without serum or phenol red to generate 5× solutions (5 µM and 0.5 µM tracer +/− 100 μM competing compound). To screen the library, a BioTek MultiFlo FX liquid dispenser was used to dispense 22.5 µL of tracer solution to the top 4 rows and 22.5 µL tracer + competing compound solution to the 4 bottom rows. Plates were briefly mixed on an orbital shaker and incubated for 1.5 h at room temperature. […]

[2] = biological target: T2, HCRTR2 (Homo sapiens, UniProt O43614); assay: NanoBRET screen HiBiT-HCRTR2 in HEK293; details: HCRTR2
T2 construct: purchased Promega (in-house HiBiT-GPCR construct library, NanoBRET)
T2 sequence (O43614 1-444): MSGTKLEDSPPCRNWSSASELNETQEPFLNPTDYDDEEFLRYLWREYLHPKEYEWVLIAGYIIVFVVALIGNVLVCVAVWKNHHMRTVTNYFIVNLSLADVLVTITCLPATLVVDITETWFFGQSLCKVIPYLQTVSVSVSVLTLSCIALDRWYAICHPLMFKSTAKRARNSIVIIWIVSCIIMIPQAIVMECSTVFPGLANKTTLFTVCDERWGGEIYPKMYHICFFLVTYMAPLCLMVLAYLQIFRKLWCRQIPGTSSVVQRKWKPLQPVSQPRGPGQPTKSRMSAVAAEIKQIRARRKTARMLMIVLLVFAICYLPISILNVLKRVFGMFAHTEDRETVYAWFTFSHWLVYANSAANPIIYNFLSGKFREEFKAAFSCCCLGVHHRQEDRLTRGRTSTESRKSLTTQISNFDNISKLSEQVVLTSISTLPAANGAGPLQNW
Description: as §1, §2

[3] = biological target: T3, FZD9 (Homo sapiens, UniProt O00144); assay: NanoBRET screen HiBiT-FZD9 in HEK293; details: FZD9
T3 construct: purchased Promega (in-house HiBiT-GPCR construct library, NanoBRET)
T3 sequence (O00144 23-591): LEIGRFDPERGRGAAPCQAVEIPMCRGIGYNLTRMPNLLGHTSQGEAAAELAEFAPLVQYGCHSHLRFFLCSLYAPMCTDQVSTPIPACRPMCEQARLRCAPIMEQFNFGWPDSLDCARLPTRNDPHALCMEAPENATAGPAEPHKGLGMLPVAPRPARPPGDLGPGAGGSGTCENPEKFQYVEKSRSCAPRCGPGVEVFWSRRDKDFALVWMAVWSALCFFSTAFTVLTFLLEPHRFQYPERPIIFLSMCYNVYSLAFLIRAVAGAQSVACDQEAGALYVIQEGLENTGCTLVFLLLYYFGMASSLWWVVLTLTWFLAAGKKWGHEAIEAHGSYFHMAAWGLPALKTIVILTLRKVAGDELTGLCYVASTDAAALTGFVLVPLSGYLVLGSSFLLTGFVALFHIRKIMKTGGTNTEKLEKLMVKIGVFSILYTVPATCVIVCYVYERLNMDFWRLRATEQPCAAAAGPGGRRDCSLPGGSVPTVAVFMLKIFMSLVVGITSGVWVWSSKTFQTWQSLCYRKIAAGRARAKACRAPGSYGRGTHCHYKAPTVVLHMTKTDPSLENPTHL
Description: as §1, §2

| Structure (SMILES) | NanoBRET Fold Response ([1]; 0.1μM tracer) | NanoBRET Fold Response ([1]; 1μM tracer) | NanoBRET Fold Response ([2]; 0.1μM tracer) | NanoBRET Fold Response ([2]; 1μM tracer) | NanoBRET Fold Response ([3]; 0.1μM tracer) | NanoBRET Fold Response ([3]; 1μM tracer) | NanoBRET Fold Response ([1]; tracer 0.1μM) | NanoBRET Fold Response ([1]; tracer 1μM) | NanoBRET Fold Response ([2]; tracer 0.1μM) | NanoBRET Fold Response ([2]; tracer 1μM) | NanoBRET Fold Response ([3]; tracer 0.1μM) | NanoBRET Fold Response ([3]; tracer 1μM) |
| --- | --- | --- | --- | --- | --- | --- | --- | --- | --- | --- | --- | --- |
| O=C(CCOCCOCCOCCOCCNC(=O)CCc1ccc2n1[B-](F)(F)[N+]1=C(c3ccc[nH]3)C=CC1=C2)NCCCN1CCN(C2=Nc3cc(Cl)ccc3Nc3ccccc32)CC1 [Clozapine-a-2-NB590] | 0.91 | 1.34 | 1.05 | 1.16 | 1.00 | 1.39 |  |  |  |  |  |  |
| CN1CCN(C2=Nc3cc(Cl)ccc3Nc3ccc(CNC(=O)CCOCCOCCOCCOCCNC(=O)CCc4ccc5n4[B-](F)(F)[N+]4=C(c6ccc[nH]6)C=CC4=C5)cc32)CC1 [Clozapine-b-2-NB590] | 0.78 |  | 0.99 | 0.98 | 1.02 | 1.05 |  |  |  |  |  |  |
| CN1CCN(C2=Nc3cc(Cl)ccc3N(CC(=O)NCCOCCOCCOCCOCCNC(=O)CCc3ccc4n3[B-](F)(F)[N+]3=C(c5ccc[nH]5)C=CC3=C4)c3ccccc32)CC1 [Clozapine-c-2-NB590] | 1.00 | 0.89 | 0.97 | 1.04 | 0.95 | 0.95 |  |  |  |  |  |  |
| O=C(CCOCCOCCOCCOCCNC(=O)CCc1ccc2n1[B-](F)(F)[N+]1=C(c3ccc[nH]3)C=CC1=C2)NCCCN1CCN(C2=Nc3ccccc3Oc3ccc(Cl)cc32)CC1 [Loxapine-a-2-NB590] |  |  |  |  |  |  | 0.81 | 0.85 | 1.13 | 1.16 | 1.00 | 1.07 |
| COc1ccccc1N1CCN(CCCCN2C(=O)c3ccc(CNC(=O)CCOCCOCCOCCOCCNC(=O)CCc4ccc5n4[B-](F)(F)[N+]4=C(c6ccc[nH]6)C=CC4=C5)cc3C2=O)CC1 [NAN-190-2-NB590] |  |  |  |  |  |  | 0.56 | 1.20 | 1.02 | 1.00 | 0.96 | 1.06 |
| COc1ccccc1N1CCN(CCCCN2C(=O)c3ccc(CNC(=O)CCOCCNC(=O)c4ccc(CNC(=O)CCc5ccc6n5[B-](F)(F)[N+]5=C(c7ccc[nH]7)C=CC5=C6)cc4)cc3C2=O)CC1 [NAN-190-3-NB590] |  |  |  |  |  |  | 1.35 | 0.77 | 0.98 | 0.97 | 0.94 | 1.18 |
